# Data as given in US6906205B2, “Spiro and dispiro 1,2,4-trioxolane antimalarials” (Medicines for Malaria Venture MMV, priority 2002, dated 2005).
# System: P. falciparum K1 strain (Thailand resistant to chloroquine)
# Assay: semiautomated microdilution assay, [3H]-hypoxanthine incorporation, K1 strain
# Format: cell-based, Plasmodium falciparum
# Conditions: K1 strain, 72 h incubation
# How it was run: (§1)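 Intraerythrocytic stages from unsynchronised stock cultures are exposed to test compounds in a semiautomated microdilution format, and fifty percent inhibitory concentrations are then fitted by logit regression.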
row,SMILES,IC50 (ng/ml) K1 [ng/mL]
1,NC[C@H]1CC[C@@]2(CC1)OOC1(O2)C2CC3CC(C2)CC1C3 (stereo partly shown) [OZ269],0.32
2,C1C2CC3CC1CC(C2)C31OO[C@]2(CC[C@@H](CNC3CC3)CC2)O1 (stereo partly shown) [OZ253],0.56
3,NC1(C(=O)NC[C@H]2CC[C@]3(CC2)OO[C@]2(O3)C3CC4CC(C3)CC2C4)CCCCC1 [OZ333],0.24
4,NC1(C(=O)NC[C@H]2CC[C@]3(CC2)OO[C@]2(O3)C3CC4CC(C3)CC2C4)CCCC1 [OZ317],0.33
5,N#CC1(c2ccc(Cl)c(Cl)c2)CCC2(CC1)OOC1(O2)C2CC3CC(C2)CC1C3 (stereo not shown) [OZ75],2.4

# Same assay, conditions: Plasmodium falciparum, K1, 72 h, read-out: IC50 (ng/ml) K1
row,SMILES,IC50 [ng/mL]
1,CC1(O)CCC2(CC1)OOC1(O2)C2CC3CC(C2)CC1C3 (stereo not shown) [OZ90],0.44

# System: ANKA strain of P. berghei
# Assay: single dose STI in vivo screen in infected mice
# Design: species or system Plasmodium berghei
# Conditions: percent reduction in parasitemia day 3 post-infection; single 3 mg/kg po in SSV
# How it was run: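 Groups of 3-5 Moro SPF or NMRI mice infected with the ANKA strain of P. berghei received a single dose of trioxolane on day one post-infection. The compound was given in 3% ethanol and 7% Tween 80 or in SSV (0.5% w/v CMC, 0.5% v/v benzyl alcohol, 0.4% v/v Tween 80, 0.9% w/v sodium chloride in water). Antimalarial activity was scored as percent reduction in parasitemia on day three and as survival time versus untreated controls. Survival to day 30 counted as cure.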
row,SMILES,Activity (%) 3 mg/kg SSV po [%]
1,NC1(C(=O)NC[C@H]2CC[C@]3(CC2)OO[C@]2(O3)C3CC4CC(C3)CC2C4)CCCCC1 [OZ333],96
2,NC1(C(=O)NC[C@H]2CC[C@]3(CC2)OO[C@]2(O3)C3CC4CC(C3)CC2C4)CCCC1 [OZ317],99.20

# Same assay, conditions: percent reduction in parasitemia day 3 post-infection; single 10 mg/kg po in 3% ethanol and 7% Tween 80; mice
row,SMILES,Activity (%) po [%]
1,NC[C@H]1CC[C@@]2(CC1)OOC1(O2)C2CC3CC(C2)CC1C3 (stereo partly shown) [OZ269],98
2,C1C2CC3CC1CC(C2)C31OO[C@]2(CC[C@@H](CNC3CC3)CC2)O1 (stereo partly shown) [OZ253],75
3,N#CC1(c2ccc(Cl)c(Cl)c2)CCC2(CC1)OOC1(O2)C2CC3CC(C2)CC1C3 (stereo not shown) [OZ75],77
4,CC1(O)CCC2(CC1)OOC1(O2)C2CC3CC(C2)CC1C3 (stereo not shown) [OZ90],89

# Same assay, conditions: percent reduction in parasitemia day 3 post-infection; single 10 mg/kg po in SSV
row,SMILES,Activity (%) 10 mg/kg SSV po [%]
1,NC1(C(=O)NC[C@H]2CC[C@]3(CC2)OO[C@]2(O3)C3CC4CC(C3)CC2C4)CCCCC1 [OZ333],99.86
2,NC1(C(=O)NC[C@H]2CC[C@]3(CC2)OO[C@]2(O3)C3CC4CC(C3)CC2C4)CCCC1 [OZ317],99.92

# Same assay, conditions: percent reduction in parasitemia day 3 post-infection; single 10 mg/kg sc in 3% ethanol and 7% Tween 80; mice
row,SMILES,Activity (%) sc [%]
1,NC[C@H]1CC[C@@]2(CC1)OOC1(O2)C2CC3CC(C2)CC1C3 (stereo partly shown) [OZ269],99.92
2,C1C2CC3CC1CC(C2)C31OO[C@]2(CC[C@@H](CNC3CC3)CC2)O1 (stereo partly shown) [OZ253],99.82
3,N#CC1(c2ccc(Cl)c(Cl)c2)CCC2(CC1)OOC1(O2)C2CC3CC(C2)CC1C3 (stereo not shown) [OZ75],5
4,CC1(O)CCC2(CC1)OOC1(O2)C2CC3CC(C2)CC1C3 (stereo not shown) [OZ90],99

# Same assay, conditions: percent reduction in parasitemia day 3 post-infection; single po dose in standard suspending vehicle (SSV); mice
row,SMILES,Activity (%) SSVpo [%]
1,NC[C@H]1CC[C@@]2(CC1)OOC1(O2)C2CC3CC(C2)CC1C3 (stereo partly shown) [OZ269],86
2,C1C2CC3CC1CC(C2)C31OO[C@]2(CC[C@@H](CNC3CC3)CC2)O1 (stereo partly shown) [OZ253],59
3,CC1(O)CCC2(CC1)OOC1(O2)C2CC3CC(C2)CC1C3 (stereo not shown) [OZ90],95

# Same assay, conditions: single 10 mg/kg po in 3% ethanol and 7% Tween 80; untreated control 5.6 ± 0.3
row,SMILES,Survival (days) po [days]
1,NC[C@H]1CC[C@@]2(CC1)OOC1(O2)C2CC3CC(C2)CC1C3 (stereo partly shown) [OZ269],10.7
2,C1C2CC3CC1CC(C2)C31OO[C@]2(CC[C@@H](CNC3CC3)CC2)O1 (stereo partly shown) [OZ253],7.0
3,N#CC1(c2ccc(Cl)c(Cl)c2)CCC2(CC1)OOC1(O2)C2CC3CC(C2)CC1C3 (stereo not shown) [OZ75],7.3
4,CC1(O)CCC2(CC1)OOC1(O2)C2CC3CC(C2)CC1C3 (stereo not shown) [OZ90],7.0

# Same assay, conditions: single 10 mg/kg po in SSV
row,SMILES,Survival (days) 10 mg/kg SSV po [days]
1,NC1(C(=O)NC[C@H]2CC[C@]3(CC2)OO[C@]2(O3)C3CC4CC(C3)CC2C4)CCCCC1 [OZ333],9.2
2,NC1(C(=O)NC[C@H]2CC[C@]3(CC2)OO[C@]2(O3)C3CC4CC(C3)CC2C4)CCCC1 [OZ317],9.8

# Same assay, conditions: single 10 mg/kg sc in 3% ethanol and 7% Tween 80; untreated control 5.6 ± 0.3
row,SMILES,Survival (days) sc [days]
1,NC[C@H]1CC[C@@]2(CC1)OOC1(O2)C2CC3CC(C2)CC1C3 (stereo partly shown) [OZ269],9.0
2,C1C2CC3CC1CC(C2)C31OO[C@]2(CC[C@@H](CNC3CC3)CC2)O1 (stereo partly shown) [OZ253],9.3
3,N#CC1(c2ccc(Cl)c(Cl)c2)CCC2(CC1)OOC1(O2)C2CC3CC(C2)CC1C3 (stereo not shown) [OZ75],5.0
4,CC1(O)CCC2(CC1)OOC1(O2)C2CC3CC(C2)CC1C3 (stereo not shown) [OZ90],8.0

# Same assay, conditions: single po dose in SSV; untreated control 5.6 ± 0.3
row,SMILES,Survival (days) SSVpo [days]
1,NC[C@H]1CC[C@@]2(CC1)OOC1(O2)C2CC3CC(C2)CC1C3 (stereo partly shown) [OZ269],11.3
2,C1C2CC3CC1CC(C2)C31OO[C@]2(CC[C@@H](CNC3CC3)CC2)O1 (stereo partly shown) [OZ253],6.7
3,CC1(O)CCC2(CC1)OOC1(O2)C2CC3CC(C2)CC1C3 (stereo not shown) [OZ90],7.0

# System: P. falciparum NF54 strain (sensitive to standard antimalarials)
# Assay: semiautomated microdilution assay, [3H]-hypoxanthine incorporation, NF54 strain
# Format: cell-based, Plasmodium falciparum
# Conditions: NF54 strain, 72 h incubation
# How it was run: as §1
row,SMILES,IC50 (ng/ml) NF54 [ng/mL]
1,NC[C@H]1CC[C@@]2(CC1)OOC1(O2)C2CC3CC(C2)CC1C3 (stereo partly shown) [OZ269],0.61
2,C1C2CC3CC1CC(C2)C31OO[C@]2(CC[C@@H](CNC3CC3)CC2)O1 (stereo partly shown) [OZ253],0.45
3,NC1(C(=O)NC[C@H]2CC[C@]3(CC2)OO[C@]2(O3)C3CC4CC(C3)CC2C4)CCCCC1 [OZ333],0.44
4,NC1(C(=O)NC[C@H]2CC[C@]3(CC2)OO[C@]2(O3)C3CC4CC(C3)CC2C4)CCCC1 [OZ317],0.36
5,N#CC1(c2ccc(Cl)c(Cl)c2)CCC2(CC1)OOC1(O2)C2CC3CC(C2)CC1C3 (stereo not shown) [OZ75],4.3

# Same assay, conditions: Plasmodium falciparum, NF54, 72 h, read-out: IC50 (ng/ml) NF54
row,SMILES,IC50 [ng/mL]
1,CC1(O)CCC2(CC1)OOC1(O2)C2CC3CC(C2)CC1C3 (stereo not shown) [OZ90],0.84
